# Assay results reported in PubChem BioAssay (NCI).
#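 Abbreviation: GI50, concentration required for 50% inhibition of growth. Definition used: TGI = concentration required for complete inhibition of growth.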
# What was measured:
# Assay in all cases: DTP human tumour cell line panel, 384-well format
# [1] = test system: 786-0 renal
# [2] = test system: A498 renal
# [3] = test system: A549 NSCLC
# [4] = test system: ACHN renal
# [5] = test system: BT-549 breast
# [6] = test system: CAKI-1 renal
# [7] = test system: CCRF-CEM leukemia
# [8] = test system: COLO 205 colon
# [9] = test system: DU-145 prostate
# [10] = test system: EKVX NSCLC
# [11] = test system: HCC-2998 colon
# [12] = test system: HCT-116 colon
# [13] = test system: HCT-15 colon
# [14] = test system: HL-60(TB) leukemia
# [15] = test system: HOP-62 NSCLC
# [16] = test system: HOP-92 NSCLC
# [17] = test system: HS 578T breast
# [18] = test system: HT29 colon
# [19] = test system: IGROV1 ovarian
# [20] = test system: KM12 colon
# [21] = test system: LOX IMVI melanoma
# [22] = test system: M14 melanoma
# [23] = test system: MALME-3M melanoma
# [24] = test system: MCF7 breast
# [25] = test system: MDA-MB-435 melanoma
# [26] = test system: MDA-MB-468 breast
# [27] = test system: MOLT-4 leukemia
# [28] = test system: NCI-H226 lung
# [29] = test system: NCI-H23 lung
# [30] = test system: NCI-H322M lung
# [31] = test system: NCI-H460 NSCLC
# [32] = test system: NCI-H522 lung
# [33] = test system: NCI/ADR-RES ovarian
# [34] = test system: OVCAR-3 ovarian
# [35] = test system: OVCAR-4 ovarian
# [36] = test system: OVCAR-8 ovarian
# [37] = test system: PC-3 prostate
# [38] = test system: RPMI-8226 leukemia
# [39] = test system: RXF 393 renal
# [40] = test system: SF-268 CNS
# [41] = test system: SF-295 CNS
# [42] = test system: SF-539 CNS
# [43] = test system: SK-MEL-2 melanoma
# [44] = test system: SK-MEL-28 melanoma
# [45] = test system: SK-MEL-5 melanoma
# [46] = test system: SK-OV-3 ovarian
# [47] = test system: SN12C renal
# [48] = test system: SNB-19 CNS
# [49] = test system: SNB-75 CNS
# [50] = test system: SW-620 colon
# [51] = test system: TK-10 renal
# [52] = test system: U251 glioblastoma
# [53] = test system: UACC-257 melanoma
# [54] = test system: UACC-62 melanoma
smiles,measurement,setting,value
O=C1c2ccccc2C(=O)C(Cl)C1Cl (stereo not drawn),GI50,[1],1870 nM
same,TGI,[1],4.85 µM
same,GI50,[2],17.7 µM
same,TGI,[2],31.6 µM
same,GI50,[3],15.1 µM
same,TGI,[3],28.7 µM
same,GI50,[4],1380 nM
same,TGI,[4],2680 nM
same,GI50,[5],1560 nM
same,TGI,[5],2910 nM
same,GI50,[6],1660 nM
same,TGI,[6],3.03 µM
same,GI50,[7],1490 nM
same,TGI,[7],2840 nM
same,GI50,[8],1840 nM
same,TGI,[8],3.26 µM
same,GI50,[9],1150 nM
same,TGI,[9],2550 nM
same,GI50,[10],7.02 µM
same,TGI,[10],20.4 µM
same,GI50,[11],14.1 µM
same,TGI,[11],27.2 µM
same,GI50,[12],1620 nM
same,TGI,[12],3.01 µM
same,GI50,[13],1420 nM
same,TGI,[13],2750 nM
same,GI50,[14],243 nM
same,TGI,[14],743 nM
same,GI50,[15],3.33 µM
same,TGI,[15],11.3 µM
same,GI50,[16],1640 nM
same,TGI,[16],3 µM
same,GI50,[17],12.7 µM
same,TGI,[17],25.3 µM
same,GI50,[18],2780 nM
same,TGI,[18],8.03 µM
same,GI50,[19],1330 nM
same,TGI,[19],4.33 µM
same,GI50,[20],13.7 µM
same,TGI,[20],26.8 µM
same,GI50,[21],96.7 nM
same,TGI,[21],17.4 µM
same,GI50,[22],1890 nM
same,TGI,[22],3.39 µM
same,GI50,[23],1760 nM
same,TGI,[23],3.15 µM
same,GI50,[24],1390 nM
same,TGI,[24],2720 nM
same,GI50,[25],1830 nM
same,TGI,[25],3.4 µM
same,GI50,[26],1530 nM
same,TGI,[26],2870 nM
same,GI50,[27],1360 nM
same,TGI,[27],2650 nM
same,GI50,[28],1410 nM
same,TGI,[28],2770 nM
same,GI50,[29],1760 nM
same,TGI,[29],3.92 µM
same,GI50,[30],16.3 µM
same,TGI,[30],30 µM
same,GI50,[31],14 µM
same,TGI,[31],27.2 µM
same,GI50,[32],1500 nM
same,TGI,[32],2840 nM
same,GI50,[33],11.2 µM
same,TGI,[33],23.3 µM
same,GI50,[34],1600 nM
same,TGI,[34],2950 nM
same,GI50,[35],1210 nM
same,TGI,[35],2460 nM
same,GI50,[36],1670 nM
same,TGI,[36],3.07 µM
same,GI50,[37],1730 nM
same,TGI,[37],3.59 µM
same,GI50,[38],1550 nM
same,TGI,[38],2900 nM
same,GI50,[39],1630 nM
same,TGI,[39],3 µM
same,GI50,[40],13.9 µM
same,TGI,[40],27 µM
same,GI50,[41],15.2 µM
same,TGI,[41],28.5 µM
same,GI50,[42],1690 nM
same,TGI,[42],3.08 µM
same,GI50,[43],1910 nM
same,TGI,[43],3.32 µM
same,GI50,[44],3.24 µM
same,TGI,[44],9.55 µM
same,GI50,[45],2310 nM
same,TGI,[45],9.5 µM
same,GI50,[46],13.2 µM
same,TGI,[46],26.1 µM
same,GI50,[47],1810 nM
same,TGI,[47],3.46 µM
same,GI50,[48],14.1 µM
same,TGI,[48],27.2 µM
same,GI50,[49],7.16 µM
same,TGI,[49],20.5 µM
same,GI50,[50],1630 nM
same,TGI,[50],3.02 µM
same,GI50,[51],1580 nM
same,TGI,[51],2930 nM
same,GI50,[52],16.2 µM
same,TGI,[52],30 µM
same,GI50,[53],1940 nM
same,TGI,[53],3.36 µM
same,GI50,[54],1370 nM
same,TGI,[54],2850 nM
